Data: patent US20240033321A1, “PULSATIVE GNRH ADMINISTRATION FOR TREATING FOOD INTAKE RELATED DISORDERS” (INSTITUT NATIONAL DE LA SANTÉ ET DE LA RECHERCHE MÉDICALE, priority 2020, published 2024)

What was measured:
[1] = Pulsatile Lutrelef delivery by minipump in Gnrh::Cre; iBot sensitive (overweight) female mice; type: in vivo; settings: sensitive females
[2] = Pulsatile Lutrelef delivery by minipump in a Gnrh::Cre; iBot sensitive (overlean) male mouse; type: in vivo, mice; settings: one sensitive male (n=1), one pulse every 3 h
[3] = Pulsatile Lutrelef infusion by subcutaneous programmable mini-pump in obese and lean mice, food intake followed daily; type: in vivo; settings: 14 days
Protocol: Adult lean and obese male mice were housed under specific pathogen-free conditions in a temperature-controlled room (21-22° C.) with a 12 h light/dark cycle. Animals were provided with ad libitum access to food and water. The body weight of the animals and their food intake were followed on a daily base. Animal studies were approved by the Institutional Ethics Committee for the Care and Use of Experimental Animals of the University of Lille; all experiments were performed in accordance with the guidelines for animal use specified by the European Union Council Directive of Sep. 22, 2010 (2010/63/EU). […] To restore a control/lean pattern of GnRH/LH release in obese mice, we next implanted subcutaneous programmable mini-pumps that delivered either Lutrelef (0.25 μg of GnRH per pulse over 10 min given every 3 h) or vehicle to the mice (i.e., the pattern of secretion found in lean mice). Lutrelef is a native GnRH peptide that is clinically used to successfully treat hypogonadotropic infertility (23,24). The regimen was given for 14-days, during which body weight and food intake were followed daily.

## CC(C)C[C@H](NC(=O)CNC(=O)[C@H](Cc1ccc(O)cc1)NC(=O)[C@H](CO)NC(=O)[C@H](Cc1c[nH]c2ccccc12)NC(=O)[C@H](Cc1cnc[nH]1)NC(=O)[C@@H]1CCC(=O)N1)C(=O)N[C@@H](CCCNC(=N)N)C(=O)N1CCC[C@H]1C(=O)NCC(N)=O [Lutrelef]
[1]; dark phase (feeding period) (FIG. 10B)
  substrate use from RER data: restores the use of carbohydrates during the dark phase
[1]; one pulse every 2 h, 15 days (FIG. 10A)
  bodyweight: decreased body weight
[1]; one pulse every 2 h, 15 days (FIGS. 10B, 10C)
  respiratory exchange ratio (RER): normalised
[1]; one pulse every 2 h, 15 days (FIGS. 10D, 10E)
  food intake: normalised
[2]; 15 days (FIG. 11A)
  bodyweight: fully rescues bodyweight
[2]; 15 days (FIGS. 11B, 11C)
  increase in food intake: 15%
[3]; lean mice, same pulsatile regimen, compared with vehicle-infused littermates (FIG. 9)
  amount of food eaten: no observable effect
[3]; obese male mice, 0.25 μg of GnRH per pulse over 10 min every 3 h, compared with lean mice (FIG. 9)
  cumulative food intake: normalised their cumulative food intake to levels comparable with lean mice
